ChEMBL document CHEMBL5126544, “Recent results from non-basic glycosidase inhibitors: How structural diversity can inform general strategies for improving inhibition potency” (Eur J Med Chem, 2022)
Converted amounts (≈) assume the structure as drawn.

What was measured:
[1] = Cytotoxicity against MDCK cells; assay type: toxicity, cell-based, Canis lupus familiaris; conditions: dog
[2] = Inhibition of mammalian alpha-amylase using starch as substrate; set-up: species or system Mammalia
Alpha amylase = target: T1, Alpha amylase (Homo sapiens, UniProt P0DUB6); assay: Inhibition of human salivary alpha-amylase using starch as substrate preincubated for 5 mins followed by substrate addition for 8 mins and incubated with iodide potassium for another 5 mins; set-up: species or system Saliva
T1 sequence (P0DUB6 whole entry): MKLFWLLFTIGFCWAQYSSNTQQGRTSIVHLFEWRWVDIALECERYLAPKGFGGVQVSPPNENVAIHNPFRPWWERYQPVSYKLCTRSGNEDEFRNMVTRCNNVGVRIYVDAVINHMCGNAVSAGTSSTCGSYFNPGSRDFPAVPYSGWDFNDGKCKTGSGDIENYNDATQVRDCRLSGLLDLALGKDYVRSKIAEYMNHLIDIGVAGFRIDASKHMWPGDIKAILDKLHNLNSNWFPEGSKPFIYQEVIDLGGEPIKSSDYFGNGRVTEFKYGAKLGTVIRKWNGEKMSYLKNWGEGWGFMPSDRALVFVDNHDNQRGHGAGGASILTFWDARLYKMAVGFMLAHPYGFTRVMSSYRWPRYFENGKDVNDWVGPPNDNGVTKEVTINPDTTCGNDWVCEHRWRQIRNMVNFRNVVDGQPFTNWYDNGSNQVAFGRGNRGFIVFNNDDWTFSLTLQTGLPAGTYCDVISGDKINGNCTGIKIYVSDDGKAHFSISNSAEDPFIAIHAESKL

[3] = Inhibition of rat intestinal trehalase preincubated for 10 mins followed by substrate addition
[4] = Inhibition of rat intestinal gluco-amylase preincubated for 10 mins followed by substrate addition
[5] = Inhibition of rat intestinal sucrase preincubated for 10 mins followed by substrate addition
[6] = Inhibition of rat intestinal isomaltase preincubated for 10 mins followed by substrate addition
[7] = Inhibition of Aspergillus niger maltase preincubated for 10 mins followed by substrate addition
[8] = Inhibition of baker's yeast sucrase preincubated for 10 mins followed by substrate addition; set-up: species or system Saccharomyces cerevisiae
[9] = Inhibition of rat intestinal lactase preincubated for 10 mins followed by substrate addition
[10] = Inhibition of rat intestinal maltase preincubated for 10 mins followed by substrate addition
[11] = Inhibition of porcine alpha-amylase using starch as substrate preincubated for 10 mins followed by substrate addition and measured after 10 mins by microplate reader analysis; set-up: species or system Sus scrofa
[12] = Inhibition of yeast alpha-glucosidase using p-nitrophenyl-alpha-D-glucopyranoside as substrate preincubated for 5 mins followed by substrate addition measured after 5 mins by microplate reader analysis; set-up: species or system Saccharomyces cerevisiae

Compound: C/C=C/Oc1cc(C=O)ccc1O
- IC50 [1]: > 600 µM

Compound: CC(C)=CCC/C(C)=C/C=O [CITRAL]
- IC50 [2]: 120 µM

Compound: COC(=O)/C=C/c1ccc(OC/C=C(\C)CO)cc1
- IC50 (Alpha amylase): 600 µM

Compound: CC1(C)CCC[C@]2(C)c3cc(O)c(O)cc3C(=O)C[C@@H]12
- IC50 [3]: 30 µM
- IC50 [4]: 1.6 µM
- IC50 [5]: 6.8 µM
- IC50 [6]: 0.85 µM
- IC50 [7]: 14 µM
- IC50 [8]: 11 µM
- IC50 [9]: 20 µM
- IC50 [10]: 12 µM

Compound: C=C1CC[C@@H]2[C@](C)(CO)[C@H](O)CC[C@@]2(C)[C@@H]1C/C=C1/C(=O)OC[C@H]1O [ANDROGRAPHOLIDE]
- IC50 [11]: 11 mg/mL (≈ 31.4 mM)
- IC50 [12]: 11 mg/mL (≈ 31.4 mM)
